Tests used:
mice [1] = test: Stereotypic responses to cocaine (pausing, turning, velocity); type: in vivo, mouse; conditions: MPLA 10 μg or 50 μg, response to cocaine
Description: (§1) Locomotion was monitored in 30×30 cm plexiglass boxes by the EthoVision video-tracking system (Noldus) and performed near the end of the light phase of the light-dark cycle under dim red light. After habituating animals to handling, mice received IP injections of saline or cocaine and their activity was recorded for 15 min. Mice were tested during habituation to injection and the activity boxes (saline; days 1-2) and 5 repeated cocaine injections (15 mg/kg; days 3-7). Following 10 days without injections (withdrawal), mice receive a challenge dose of cocaine (15 mg/kg) and locomotor activity again assessed (day 17). Total distance traveled and stereotypy were evaluated from video by EthoVision. For stereotypy, the frequency of which the mouse stops moving (#pauses/min) was measured using a threshold start velocity of 2.00/second and a threshold stop velocity of 0 cm/s. The number of turns per minute (# turns/min) was measured by calculating the frequency for which the path of the mouse turns over a minimum distance of 3.00 cm. Velocity was assessed as the mean distance traveled (cm) over time (s).

mice [2] = test: Cocaine-induced behavioural sensitization, locomotor response; type: in vivo, mouse
Description: A cocaine induced behavioral sensitization animal model of drug addiction was used. Sensitization refers to the augmentation of behavioral responses to drugs of abuse that occurs during their repeated administration and persists long after drug exposure is discontinued. In this paradigm mice are injected with 15 mg/kg cocaine and put in an open field box and measure the cocaine stimulatory effects on locomotor for 15 min. After the first run mice are injected with 10 ug of MPL and returned to their home cage.
The response of mice to repeated doses of cocaine was compared. After habituating animals to handling, the animals receive an IP injection and have their locomotor activity monitored in open-field chambers using Ethovision software for 15 min. After two days of saline injections, mice received five daily injections of cocaine (15 mg/kg) and assayed for locomotion. Following 7-10 days without injections (withdrawal), mice receive a challenge dose of cocaine (also 15 mg/kg) and locomotor activity again assessed (see Examples 1 and 2). A minimum of three separate cohorts have been run.
as §1
Mice were treated for […] with saline (1,2), then 5 consecutive days with 15 mg/kg cocaine (3-7). Animals then underwent a 9 day withdrawal period from cocaine. On day 9, they received an injection of saline or 50 μg/kg of LPS. 24 hours later, the mice were retested for the locomotor response in terms of distance (cm) traveled in 15 minutes.

TNFα = TNFα mRNA / protein in ventral striatum (NAc) after in vivo treatment; set-up: species or system mouse; conditions: for TNFα mRNA in the ventral striatum: single injection of MPLA 10 μg
Description: To determine the effect of in vivo cocaine exposure on TNFα levels in the ventral striatum, TNFα mRNA and protein levels were measured in mice given intraperitoneal injections of saline or cocaine. […] To understand the impact of TNFα on synaptic function in the NAc, AMPA/NMDA ratios were measured at glutamatergic synapses on MSNs in the NAc core. Alteration in NAc core AMPA receptors are involved in the expression of behavioral sensitization to psychostimulants (Kalives, 2009).
Mice (8-10 weeks) were perfused and their brains submerged overnight in 4% PFA, cryoprotected with 30% sucrose, and cut in 30 μm thick coronal slices using a cryostat. The sections were incubated for 4 hours with blocking solution (2% normal goat serum, 3% BSA, 0.2% Triton X-100 in PBS) before incubation overnight at 4 C with primary antibodies in blocking solution (rabbit anti-Iba1 antibody [019-19741, Wako; 1:800; RRID: AB_2566825], chicken anti-GFAP antibody [AB5541, Millipore; 1:500; RRID: AB_177521], rabbit anti-NeuN [ab104225, Abcam, 1:400; RRID: AB_10711153], and rabbit anti-TNFα antibody [ab6671, Abcam, 1:100; RRID: AB_305641] or mouse anti-TNFα antibody [ab1793, Abcam, 1:100; RRID: AB_302615]). Sections were washed (2×15 min with PBST [0.05% Tween20] and 1×15 min with PBS at RT) and incubated for 2 hrs at room temperature in secondary antibodies (anti-rabbit, anti-chicken, or anti-mouse IgG-conjugated Alexa Fluorochrome [Invitrogen; 1:400]). Sections were washed and briefly (<30 seconds) incubated with Hoechst 33342 [H1399, Molecular Probes; 1:10,000] in PBS. The stained sections were imaged using an Olympus FluoView FV1000 confocal microscope with Fluoview imaging software (FV10-ASW). Images of the ventral striatum (nucleus accumbens core and shell) were acquired with a 40× or 60× objective and stacks of 25-30 optical sections (1 μm per section) of depth were Z-projected into a single window and analysed using ImageJ software (NIH).
The number of Iba1+ microglia were manually counted from 212×212 μm (60× objectives) or 317×317 μm (40× objectives) images. TNFα intensity was measured using the mean grey value of the entire image while Iba1 intensity measurements were obtained using a thresholded area to highlight only the microglia. Cell body area (μm^2) was measured based on Iba1 staining and using the freehand selection tool. Additional analysis of microglia morphology in saline and cocaine treated mice was done using IMARIS software (Bitplane). […] The following parameters were analyzed for 40 microglia per group: total process length (sum of length of all processes), total process volume, process diameter and number of branch points and terminals. […]
After 40 cycles, the Ct values were determined.

Substance: monophosphoryl lipid A [MPLA]
- mean velocity (mice [1]): significant decreases
- pausing (mice [1]): slight increase
- turning behaviour (mice [1]): significant decreases
- initial response to cocaine challenge dose (mice [2]; 7 daily saline injections, 9 days abstinence, MPLA 10 μg, cocaine 15 mg/kg next day): did not alter
- locomotor response to a challenge dose of cocaine (mice [2]; TNFα−/− mice, MPLA 10 μg): did not reduce
- behavioral sensitization to cocaine (mice [2]; TNFα−/− mice, MPLA 10 ug IP after first cocaine 15 mg/kg, re-tested one day later): no effect
- behavioral response to cocaine (mice [2]; WT mice, 10 days withdrawal, single MPLA 10 μg, tested 4 days later): did not reduce
- behavioral (locomotor) response to cocaine challenge (mice [2]; wildtype mice after withdrawal, MPLA 10 μg or 50 μg, tested 24 hours later, cocaine 15 mg/kg): dose dependently reduced
- behavioral sensitization to cocaine vs saline treated mice (mice [2]; wildtype mice, MPLA 10 ug IP after first cocaine 15 mg/kg, re-tested 24 hours later): reduced
- TNF-α levels in vivo, lower than LPS (TNFα; compared with LPS): 10 fold
- TNFα mRNA in the ventral striatum (TNFα; 4 hours): significantly increases
- TNFα mRNA in the ventral striatum (TNFα; 24 hours): significantly increases

From patent US10328092B2, “Methods and compositions for treatment of drug addiction” (The Royal Institution for the Advancement of Learning / …, priority 2015, dated 2019)
